From patent US11339171B2, “MDM2 inhibitors” (Gan & Lee Pharmaceuticals, priority 2017, dated 2022)
pIC50: −log10 of the molar value. Values joined by “and” are separate entries in the source; they are usually repeats but may differ in a detail not shown here. Equal values may be shown once. Read-outs that look alike come from different tables or passages of the source.

What was measured:
[1] = test system: human osteosarcoma cell line SJSA-1; assay: Inhibition of proliferation of human osteosarcoma cell line SJSA-1 (DAPI staining, In Cell Analyzer); details: Homo sapiens, SJSA-1, 72 h, read-out: IC50 (nM), inhibitory activity on proliferation of human osteosarcoma cell line SJSA-1, SJSA-1, incubated 72 h
[2] = Pharmacokinetics in ICR mice after intravenous and intragastric administration; assay type: in vivo; details: for MRT last: read-out: MRT(0-t); for MRT inf: read-out: MRT(0-∞); for Tmax: read-out: Tmax; for Vd: read-out: Vz
Procedure, shortened: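 Male ICR mice aged 6-9 weeks are dosed after an overnight fast, intravenously at 2 mg/kg and orally by gavage at 5 mg/kg. Plasma drug is measured by LC-MS/MS over a 1-2000 ng/ml range.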

MDM2 = target: T1, MDM2 (Homo sapiens, UniProt Q00987); assay: Inhibition test of MDM2-P53 (GST-MDM2, Biotin-P53, Anti-GST-Tb, SA-XL665); assay type: binding
T1 construct: made in house
T1 sequence (Q00987 whole entry): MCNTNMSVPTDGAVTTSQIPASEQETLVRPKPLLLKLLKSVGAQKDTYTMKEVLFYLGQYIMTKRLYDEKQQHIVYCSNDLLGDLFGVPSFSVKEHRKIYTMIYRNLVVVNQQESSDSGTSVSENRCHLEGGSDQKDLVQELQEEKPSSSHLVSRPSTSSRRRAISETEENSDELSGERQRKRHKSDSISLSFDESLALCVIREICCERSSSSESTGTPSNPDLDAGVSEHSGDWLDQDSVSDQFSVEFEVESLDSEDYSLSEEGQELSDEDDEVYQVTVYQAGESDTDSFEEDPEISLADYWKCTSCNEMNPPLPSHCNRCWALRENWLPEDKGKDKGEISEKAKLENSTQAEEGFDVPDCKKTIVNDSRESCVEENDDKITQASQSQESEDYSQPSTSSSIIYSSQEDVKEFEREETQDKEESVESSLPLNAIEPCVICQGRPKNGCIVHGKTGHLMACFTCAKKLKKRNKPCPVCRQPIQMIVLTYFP
Procedure, shortened: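 Compounds, serially diluted 5-fold (twelve concentrations), were shaken for 90 min at 25° C with a mix of GST-MDM2 (4 nM final), Biotin-P53, anti-GST-Tb and SA-XL665. Buffer: 1×PBS, 0.1% BSA, 5 mM DTT, 1 mM AEBSF; signal read on a microplate reader.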

[3] = ICR mice, IV 2 mg/kg, individual animals 301-303, 2 mg/kg
[4] = ICR mice, PO 5 mg/kg, individual animals 401-403, 5 mg/kg
[5] = male, ICR, mouse, plasma, iv, 2 mg/kg, ICR mice, IV 2 mg/kg, individual animals 301-303
[6] = male, ICR, mouse, plasma, iv, 2 mg/kg, ICR mice, IV 2 mg/kg, mean of 3 animals
[7] = male, ICR, mouse, plasma, po, 5 mg/kg, ICR mice, PO 5 mg/kg, individual animals 401-403
[8] = male, ICR, mouse, plasma, po, 5 mg/kg, ICR mice, PO 5 mg/kg, mean of 3 animals

COc1cc(OC(C)C)ncc1-c1nc2c(n1C(C)C)[C@@]1(C(=O)Nc3cc(Cl)ccc31)N(c1cc(Cl)cnc1C)C2=O [Example S-137, (S)-6-chloro-5′-(5-chloro-2-methylpyridin-3-yl)-2′-(6-isopropoxy-4-methoxypyridin-3-yl)-3′-isopropyl-3′H-spiro[dihydroindole-3,4′-pyrrolo[3,4-d]imidazole]-2,6′(5′H)-dione]
IC50 [1]: 65.9 nM
AUC(0-t) [2, 3]: 15555.08 ng·h/mL and 10168.14 ng·h/mL
AUC(0-∞) [2, 3]: 15581.80 ng·h/mL and 10938.18 ng·h/mL
CL [2, 3]: 2.14 mL/min/kg and 3.05 mL/min/kg
Cmax [2, 3]: 5945.51 ng/mL and 5653.28 ng/mL
MRT(0-t) [2, 3]: 2.84 h and 1.50 h
MRT(0-∞) [2, 3]: 2.88 h and 1.97 h
Vz [2, 3]: 0.52 L/kg and 0.41 L/kg
t1/2 [2, 3]: 2.79 h and 1.57 h
F* ([2]; ICR mice, PO 5 mg/kg vs IV 2 mg/kg, mean): 53.35%
AUC(0-t) [2, 4]: 16097.34 ng·h/mL and 14779.57 ng·h/mL
AUC(0-∞) [2, 4]: 17159.38 ng·h/mL and 15367.65 ng·h/mL
Cmax [2, 4]: 5542.83 ng/mL and 6791.01 ng/mL
MRT(0-t) [2, 4]: 2.31 h and 2.03 h
MRT(0-∞) [2, 4]: 2.84 h and 2.35 h
t1/2 [2, 4]: 1.98 h and 1.69 h
AUC(0-inf) [2, 5]: 9740 ng·h/mL
clearance [2, 5]: 3.42 mL/min/kg
AUC(0-t) ([2]; male, ICR, mouse, plasma, iv, 2 mg/kg, ICR mice, IV 2 mg/kg, individual animals 301-303, read-out: AUC(0-t)): 8960 ng·h/mL
Cmax ([2]; male, ICR, mouse, plasma, iv, 2 mg/kg, ICR mice, IV 2 mg/kg, individual animals 301-303, read-out: Cmax): 5260 ng/mL
MRT last [2, 5]: 1.51 h
MRT inf [2, 5]: 2.06 h
Tmax [2, 5]: 0.08 h
Vd [2, 5]: 0.5 L/kg
half-life ([2]; male, ICR, mouse, plasma, iv, 2 mg/kg, ICR mice, IV 2 mg/kg, individual animals 301-303, read-out: t1/2 (converted)): 1.68 h
AUC(0-inf) [2, 6]: 12100 ng·h/mL
clearance [2, 6]: 2.87 mL/min/kg
AUC(0-t) ([2]; male, ICR, mouse, plasma, iv, 2 mg/kg, ICR mice, IV 2 mg/kg, mean of 3 animals, read-out: AUC(0-t)): 11600 ng·h/mL
Cmax ([2]; male, ICR, mouse, plasma, iv, 2 mg/kg, ICR mice, IV 2 mg/kg, mean of 3 animals, read-out: Cmax): 5620 ng/mL
MRT last [2, 6]: 1.95 h
MRT inf [2, 6]: 2.3 h
Tmax [2, 6]: 0.083 h
Vd [2, 6]: 0.48 L/kg
half-life ([2]; male, ICR, mouse, plasma, iv, 2 mg/kg, ICR mice, IV 2 mg/kg, mean of 3 animals, read-out: t1/2 (converted)): 2.01 h
AUC(0-inf) [2, 7]: 16200 ng·h/mL
AUC(0-t) ([2]; male, ICR, mouse, plasma, po, 5 mg/kg, ICR mice, PO 5 mg/kg, individual animals 401-403, read-out: AUC(0-t)): 15400 ng·h/mL
Cmax ([2]; male, ICR, mouse, plasma, po, 5 mg/kg, ICR mice, PO 5 mg/kg, individual animals 401-403, read-out: Cmax): 5880 ng/mL
MRT last [2, 7]: 2.28 h
MRT inf [2, 7]: 2.7 h
Tmax [2, 7]: 0.5 h
half-life ([2]; male, ICR, mouse, plasma, po, 5 mg/kg, ICR mice, PO 5 mg/kg, individual animals 401-403, read-out: t1/2 (converted)): 1.85 h
AUC(0-inf) [2, 8]: 16200 ng·h/mL
AUC(0-t) ([2]; male, ICR, mouse, plasma, po, 5 mg/kg, ICR mice, PO 5 mg/kg, mean of 3 animals, read-out: AUC(0-t)): 15400 ng·h/mL
Cmax ([2]; male, ICR, mouse, plasma, po, 5 mg/kg, ICR mice, PO 5 mg/kg, mean of 3 animals, read-out: Cmax): 6070 ng/mL
MRT last [2, 8]: 2.21 h
MRT inf [2, 8]: 2.63 h
Tmax [2, 8]: 0.5 h
half-life ([2]; male, ICR, mouse, plasma, po, 5 mg/kg, ICR mice, PO 5 mg/kg, mean of 3 animals, read-out: t1/2 (converted)): 1.84 h
AUC(0-t) ([2]; male, ICR, mouse, plasma, po, 5 mg/kg, oral intragastric administration 5 mg/kg, read-out: AUC0-t): 15400 ng·h/mL
half-life ([2]; male, ICR, mouse, plasma, po, 5 mg/kg, oral intragastric administration 5 mg/kg, read-out: half-life (converted)): 1.84 h
pIC50 (MDM2): 8.78
